The target of experiment [1] is T1, human GR (glucocorticoid receptor) (Homo sapiens, UniProt P04150).
T1 sequence (P04150 1-777): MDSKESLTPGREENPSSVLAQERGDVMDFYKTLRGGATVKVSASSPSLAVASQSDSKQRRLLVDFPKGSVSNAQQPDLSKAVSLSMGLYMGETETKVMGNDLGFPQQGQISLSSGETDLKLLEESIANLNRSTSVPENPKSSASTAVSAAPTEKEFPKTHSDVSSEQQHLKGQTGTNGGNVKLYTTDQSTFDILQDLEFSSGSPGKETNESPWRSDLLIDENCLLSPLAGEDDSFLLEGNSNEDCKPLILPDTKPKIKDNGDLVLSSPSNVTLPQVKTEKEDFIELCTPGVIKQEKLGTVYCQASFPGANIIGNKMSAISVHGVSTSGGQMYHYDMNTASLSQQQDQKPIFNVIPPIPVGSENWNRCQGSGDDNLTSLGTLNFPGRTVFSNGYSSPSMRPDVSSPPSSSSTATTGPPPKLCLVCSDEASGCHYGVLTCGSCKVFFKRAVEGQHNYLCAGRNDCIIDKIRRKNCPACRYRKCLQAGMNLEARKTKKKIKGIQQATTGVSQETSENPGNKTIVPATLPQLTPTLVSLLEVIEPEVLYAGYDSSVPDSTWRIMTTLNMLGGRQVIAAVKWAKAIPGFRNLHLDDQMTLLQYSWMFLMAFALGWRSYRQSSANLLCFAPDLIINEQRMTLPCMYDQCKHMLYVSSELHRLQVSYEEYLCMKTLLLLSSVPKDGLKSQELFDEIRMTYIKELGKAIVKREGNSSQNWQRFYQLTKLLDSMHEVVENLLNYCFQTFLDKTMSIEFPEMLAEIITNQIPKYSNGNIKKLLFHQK
In kind it is cell-based. The following applies: for IC50 (M) ± SEM: 20 nM [3H]-DEX, 3 h.

The target in experiment [2] is T1, human GR (glucocorticoid receptor). Put plainly: GRE-luciferase reporter transactivation in transfected COS-1 cells. The format is cell-based.

What is called EC50 is the concentration giving half of the maximal effect. Read a high EC50 as weaker potency. `C#C[C@]1(O)CC[C@H]2[C@@H]3CCC4=CC(=O)CC[C@@H]4[C@H]3C(=C)C[C@@]21CC` [etonogestrel]: the “IC50 (M) ± SEM” value in experiment [1] is given as 1.15 ± 5.2 × 10^-8 M. This compound showed a concentration giving a half-maximal response (EC50) in experiment [2] of 31.9 nM.
With `C#C[C@]1(O)CC[C@H]2[C@@H]3CCC4=CC(=O)CC[C@@H]4[C@H]3CC[C@@]21CC` [levonorgestrel], the “IC50 (M) ± SEM” value in experiment [1] is listed as 1.35 ± 9.1 × 10^-7 M.
As a reminder, the IC50 is the midpoint of a concentration-inhibition curve. Higher therefore signals weaker potency in that assay. `CC(=O)O[C@]1(C(C)=O)CC[C@H]2[C@@H]3C[C@H](C)C4=CC(=O)CC[C@]4(C)[C@H]3CC[C@@]21C` [medroxyprogesterone acetate] displayed a 50% inhibitory concentration (IC50) in experiment [1] of 5.58 nM. Besides, the half-maximal effective concentration (EC50) in experiment [2] was found to be 41.7 nM.
Take `C=C1C[C@H]2[C@@H]3CCC4=CC(=O)CC[C@@H]4[C@H]3CC[C@]2(C)[C@@]1(OC(C)=O)C(C)=O` [nestorone]: the IC50 in experiment [1] was 57.3 nM. The same compound yielded a concentration giving a half-maximal response (EC50) in experiment [2] of 18.5 nM.

The values are drawn from PMC9081821 (Steroids, 2022).
